Experimental data taken from PubChem BioAssay (NCI).
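Cultured in 96-well plates, cells were exposed to test compound for 48 hours across five concentrations. TGI: concentration producing complete growth inhibition.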

Experiments:
Assay in all cases: NCI anticancer screen, dose series, 48 h
[1] = tested on: 786-0 renal
[2] = tested on: A498 renal
[3] = tested on: A549 NSCLC
[4] = tested on: ACHN renal
[5] = tested on: CAKI-1 renal
[6] = tested on: CCRF-CEM leukemia
[7] = tested on: COLO 205 colon
[8] = tested on: DLD-1 colon
[9] = tested on: DMS 273 small cell lung
[10] = tested on: EKVX NSCLC
[11] = tested on: HCC-2998 colon
[12] = tested on: HCT-116 colon
[13] = tested on: HCT-15 colon
[14] = tested on: HL-60(TB) leukemia
[15] = tested on: HOP-18 NSCLC
[16] = tested on: HOP-62 NSCLC
[17] = tested on: HOP-92 NSCLC
[18] = tested on: HT29 colon
[19] = tested on: IGROV1 ovarian
[20] = tested on: K-562 leukemia
[21] = tested on: KM20L2 colon
[22] = tested on: LOX IMVI melanoma
[23] = tested on: M14 melanoma
[24] = tested on: M19-MEL melanoma
[25] = tested on: MALME-3M melanoma
[26] = tested on: MOLT-4 leukemia
[27] = tested on: NCI-H226 lung
[28] = tested on: NCI-H23 lung
[29] = tested on: NCI-H460 lung
[30] = tested on: NCI-H522 lung
[31] = tested on: OVCAR-3 ovarian
[32] = tested on: OVCAR-4 ovarian
[33] = tested on: OVCAR-5 ovarian
[34] = tested on: OVCAR-8 ovarian
[35] = tested on: RPMI-8226 leukemia
[36] = tested on: RXF 393 renal
[37] = tested on: SF-268 CNS
[38] = tested on: SF-295 CNS
[39] = tested on: SF-539 CNS
[40] = tested on: SK-MEL-28 melanoma
[41] = tested on: SK-MEL-5 melanoma
[42] = tested on: SK-OV-3 ovarian
[43] = tested on: SN12C renal
[44] = tested on: SNB-19 CNS
[45] = tested on: SNB-75 CNS
[46] = tested on: SNB-78 CNS
[47] = tested on: SR leukemia
[48] = tested on: SW-620 colon
[49] = tested on: TK-10 renal
[50] = tested on: U251 CNS
[51] = tested on: UACC-257 melanoma
[52] = tested on: UACC-62 melanoma
[53] = tested on: UO-31 renal
[54] = tested on: DMS 114 small cell lung
[55] = tested on: KM12 colon
[56] = tested on: SK-MEL-2 melanoma
[57] = tested on: LXFL 529 NSCLC

Compound: CN(C)CCNC(=O)C1COc2cc(-c3cc(=O)c4ccccc4o3)ccc2O1 (stereo not drawn)
- TGI [1]: 36.3 µM
- TGI [2]: 33.7 µM
- TGI [3]: 35.5 µM
- TGI [4]: 33.1 µM
- TGI [5]: 38.3 µM
- TGI [6]: > 100 µM
- TGI [7]: 31.7 µM
- TGI [8]: > 100 µM
- TGI [9]: 36.3 µM
- TGI [10]: > 100 µM
- TGI [11]: > 100 µM
- TGI [12]: 29.6 µM
- TGI [13]: > 100 µM
- TGI [14]: 58.9 µM
- TGI [15]: 56 µM
- TGI [16]: > 100 µM
- TGI [17]: > 100 µM
- TGI [18]: 34.6 µM
- TGI [19]: 48.3 µM
- TGI [20]: > 100 µM
- TGI [21]: 56.5 µM
- TGI [22]: 38.3 µM
- TGI [23]: 32 µM
- TGI [24]: > 100 µM
- TGI [25]: 36.2 µM
- TGI [26]: 40.7 µM
- TGI [27]: 49 µM
- TGI [28]: > 100 µM
- TGI [29]: > 100 µM
- TGI [30]: 31 µM
- TGI [31]: 43.7 µM
- TGI [32]: 33.2 µM
- TGI [33]: > 100 µM
- TGI [34]: 70.1 µM
- TGI [35]: 85.1 µM
- TGI [36]: 38.8 µM
- TGI [37]: 50.9 µM
- TGI [38]: 93.6 µM
- TGI [39]: 32.9 µM
- TGI [40]: 36 µM
- TGI [41]: 28.8 µM
- TGI [42]: 53.8 µM
- TGI [43]: 78.8 µM
- TGI [44]: 57.8 µM
- TGI [45]: 43.1 µM
- TGI [46]: 57.8 µM
- TGI [47]: 39.5 µM
- TGI [48]: 44.5 µM
- TGI [49]: 75.9 µM
- TGI [50]: 40.3 µM
- TGI [51]: 34.7 µM
- TGI [52]: 34.9 µM
- TGI [53]: > 100 µM

Compound: O=C(Nc1ccccc1SC(/C=C/NNC1=NC(c2ccccc2)C(c2ccccc2)=NN1)c1ccccc1)c1ccc(Cl)cc1Cl (stereo not drawn)
- TGI [1]: > 100 µM
- TGI [2]: > 100 µM
- TGI [3]: > 100 µM
- TGI [4]: > 100 µM
- TGI [6]: > 100 µM
- TGI [7]: > 100 µM
- TGI [8]: > 100 µM
- TGI [54]: > 100 µM
- TGI [9]: > 100 µM
- TGI [10]: > 100 µM
- TGI [11]: > 100 µM
- TGI [13]: > 100 µM
- TGI [14]: > 100 µM
- TGI [16]: 73.5 µM
- TGI [18]: > 100 µM
- TGI [19]: > 100 µM
- TGI [20]: > 100 µM
- TGI [55]: > 100 µM
- TGI [21]: > 100 µM
- TGI [22]: > 100 µM
- TGI [24]: > 100 µM
- TGI [25]: > 100 µM
- TGI [27]: 99.6 µM
- TGI [28]: 55.6 µM
- TGI [29]: > 100 µM
- TGI [30]: > 100 µM
- TGI [31]: > 100 µM
- TGI [32]: 94.8 µM
- TGI [33]: > 100 µM
- TGI [34]: > 100 µM
- TGI [35]: > 100 µM
- TGI [36]: > 100 µM
- TGI [37]: > 100 µM
- TGI [38]: > 100 µM
- TGI [39]: 60.2 µM
- TGI [56]: 45.6 µM
- TGI [40]: > 100 µM
- TGI [41]: > 100 µM
- TGI [42]: > 100 µM
- TGI [43]: > 100 µM
- TGI [44]: > 100 µM
- TGI [45]: > 100 µM
- TGI [46]: > 100 µM
- TGI [48]: > 100 µM
- TGI [49]: > 100 µM
- TGI [50]: 64.6 µM
- TGI [51]: > 100 µM
- TGI [52]: > 100 µM
- TGI [53]: 94.6 µM

Compound: CC1(CO)OC(n2cnc3c(N)ncnc32)C(O)C1O (stereo not drawn)
- TGI [1]: > 100 µM
- TGI [2]: > 100 µM
- TGI [3]: > 100 µM
- TGI [4]: > 100 µM
- TGI [5]: > 100 µM
- TGI [6]: > 100 µM
- TGI [7]: > 100 µM
- TGI [8]: > 100 µM
- TGI [54]: > 100 µM
- TGI [11]: > 100 µM
- TGI [12]: > 100 µM
- TGI [13]: > 100 µM
- TGI [14]: > 100 µM
- TGI [15]: > 100 µM
- TGI [16]: > 100 µM
- TGI [17]: > 100 µM
- TGI [18]: > 100 µM
- TGI [19]: > 100 µM
- TGI [20]: > 100 µM
- TGI [55]: > 100 µM
- TGI [22]: > 100 µM
- TGI [57]: > 100 µM
- TGI [23]: > 100 µM
- TGI [24]: > 100 µM
- TGI [25]: > 100 µM
- TGI [26]: > 100 µM
- TGI [28]: > 100 µM
- TGI [29]: > 100 µM
- TGI [30]: > 100 µM
- TGI [31]: > 100 µM
- TGI [32]: > 100 µM
- TGI [33]: > 100 µM
- TGI [34]: > 100 µM
- TGI [35]: > 100 µM
- TGI [36]: > 100 µM
- TGI [37]: > 100 µM
- TGI [38]: > 100 µM
- TGI [39]: > 100 µM
- TGI [56]: > 100 µM
- TGI [40]: > 100 µM
- TGI [41]: > 100 µM
- TGI [42]: > 100 µM
- TGI [43]: > 100 µM
- TGI [44]: > 100 µM
- TGI [45]: > 100 µM
- TGI [47]: > 100 µM
- TGI [48]: > 100 µM
- TGI [49]: > 100 µM
- TGI [50]: > 100 µM
- TGI [52]: > 100 µM
- TGI [53]: > 100 µM
